Reference: patent US20110172296A1, “MODULATION OF TRANSFORMING GROWTH FACTOR-BETA 1 EXPRESSION” (priority 2010, published 2011)
Where “and” joins values, the source holds several entries; their conditions need not be identical. Identical values can stand only once. e = 2'-O-(2-methoxyethyl) (MOE); d = 2'-deoxy (DNA)

Key:
BALB/c mice [1] = conditions: mouse, in vivo
Protocol: (§1) These gapmer oligonucleotides were designed to target human TGF-beta1 and have varying degrees of mismatch with murine TGF-beta1 sequence, as shown in Table 1. Oligo ID Nos. 413982 and 414040 have greater than 3 mismatches to the murine TGF-beta1 sequence. Oligo ID No. 414035 has 2 mismatches to murine TGF-beta1. Oligo ID No. 414036 has no mismatches to murine TGF-beta1.
(§2) BALB/c mice were injected with 25 mg/kg or 50 mg/kg of Oligo ID Nos. 413982, 414035, 414036, or 414040 twice a week for 4 weeks. A control group of mice was injected with phosphate buffered saline (PBS) twice a week for 4 weeks. Plasma transaminase levels were evaluated bi-weekly.
(§3) To evaluate the impact of TGF-beta1 antisense oligonucleotides on the hepatic function of mice described above, plasma concentrations of transaminases were measured using an automated clinical chemistry analyzer (Hitachi Olympus AU400e, Melville, N.Y.).

BALB/c mice [2] = assay: Tolerability in BALB/c mice: plasma transaminases ALT and AST (Example 7); conditions: for aspartate transaminase levels: plasma; for increase in ALT/AST: 25 or 50 mg/kg twice a week for four weeks
Protocol: as §1, §2, §3

human TGF-beta1 mRNA [3] = assay: Antisense inhibition of human TGF-beta1 mRNA in HuVEC cells, single 10 nM dose, Lipofectamine 2000 (Example 2); format: cell-based; conditions: for % inhibition: 10 nM oligonucleotide, HuVEC, relative to untreated control cells, gapmers targeted to SEQ ID NO: 1; for inhibition of a TGF-beta1 mRNA: threshold lists of Oligo IDs, 10 nM
Method in brief: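 Percent inhibition relative to untreated controls, from qRT-PCR of mRNA corrected for total RNA (RIBOGREEN). Cells were exposed 4 h to 10 nM phosphorothioate 2-13-5 MOE gapmers with Lipofectamine 2000 at 5,000 cells/well. RNA was harvested after roughly 24 h recovery.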

human TGF-beta1 mRNA [4] = assay: Dose-dependent confirmation of antisense inhibition of human TGF-beta1 in HuVEC cells, electroporation (Example 6); format: cell-based
Protocol: The gapmers from Example 5 (see Table 5) were also tested at various doses in HuVEC cells using electroporation as the transfection reagent. Cells were plated at a density of 20,000 cells per well and transfected using electroporation with 0.15625 nM, 0.3125 nM, 0.625 nM, 1.25 nM, 2.5 nM, 5 nM, 10 nM, and 20 nM concentrations of antisense oligonucleotide for 4 hours, as specified in Table 6. After a recovery period of approximately 16 hours, RNA was isolated from the cells and TGF-beta1 mRNA levels were measured by quantitative real-time PCR. TGF-beta1 mRNA levels were adjusted according to total RNA content, as measured by RIBOGREEN®. Results are presented as percent inhibition of TGF-beta1, relative to untreated control cells.

human TGF-beta1 mRNA [5] = assay: Dose-dependent antisense inhibition of human TGF-beta1 in HuVEC cells, Lipofectamine 2000, 0.3292-80 nM, comparison with oligos of U.S. Pat. No. 6,436,909 (Example 4); format: cell-based
Protocol: The dose-dependent antisense inhibition potential of these gapmers was compared with that of Oligo IDs 104992 and 1138498 from U.S. Pat. No. 6,436,909. Cells were plated at a density of 5,000 cells per well and transfected using Lipofectamine™ 2000 reagent with 0.3292 nM, 0.9877 nM, 2.963 nM, 8.8889 nM, 26.6667 nM, and 80 nM concentrations of antisense oligonucleotide for 4 hours, as specified in Table 4. After a recovery period of approximately 16 hours, RNA was isolated from the cells and TGF-beta1 mRNA levels were measured by quantitative real-time PCR. Human TGF-beta1 primer probe set RTS 2980 was used to measure mRNA levels. TGF-beta1 mRNA levels were adjusted according to total RNA content, as measured by RIBOGREEN®. Results are presented as percent inhibition of TGF-beta1, relative to untreated control cells. […] All the antisense oligonucleotides in Table 4 target human TGF-beta1 mRNA (SEQ ID NO: 1).

human TGF-beta1 mRNA [6] = assay: Dose-dependent antisense inhibition of human TGF-beta1 in HuVEC cells, Lipofectamine 2000, 0.9375-30 nM (Example 3); format: cell-based; conditions: Lipofectamine 2000
Protocol: Cells were plated at a density of 5,000 cells per well and transfected using Lipofectamine™ 2000 reagent with 0.9375 nM, 1.875 nM, 3.75 nM, 7.5 nM, 15 nM, and 30 nM concentrations of antisense oligonucleotide for 4 hours, as specified in Table 3. After a recovery period of approximately 16 hours, RNA was isolated from the cells and TGF-beta1 mRNA levels were measured by quantitative real-time PCR. Human TGF-beta1 primer probe set RTS 2980 (forward sequence CTCTCCGACCTGCCACAGA, SEQ ID NO: 160; reverse sequence […], SEQ ID NO: 53; probe sequence CCCTATTCAAGACCACCCACCTTCTGGTX, SEQ ID NO: 161) was used to measure mRNA levels. TGF-beta1 mRNA levels were adjusted according to total RNA content, as measured by RIBOGREEN®. Results are presented as percent inhibition of TGF-beta1, relative to untreated control cells.

human TGF-beta1 mRNA [7] = assay: Dose-dependent confirmation of antisense inhibition of human TGF-beta1 in HuVEC cells after large-scale synthesis, Lipofectamine 2000, 0.007-15 nM (Example 5); format: cell-based; conditions: for percent inhibition of TGF-beta1: Lipofectamine 2000; for IC50: Lipofectamine 2000, Example 5
Protocol: Cells were plated at a density of 5,000 cells per well and transfected using Lipofectamine™ 2000 reagent with 0.007 nM, 0.021 nM, 0.062 nM, 0.185 nM, 0.556 nM, 1.667 nM, 5 nM, and 15 nM concentrations of antisense oligonucleotide for 4 hours, as specified in Table 5. After a recovery period of approximately 16 hours, RNA was isolated from the cells and TGF-beta1 mRNA levels were measured by quantitative real-time PCR. Human TGF-beta1 primer probe set RTS 2980 was used to measure mRNA levels. TGF-beta1 mRNA levels were adjusted according to total RNA content, as measured by RIBOGREEN®. Results are presented as percent inhibition of TGF-beta1, relative to untreated control cells.

Substance: 413982 (antisense GCCTCCGGCTCCCAGCGGCA; sugars from the 5' end e2 d13 e5, backbone and methylation of C not given here) [compound 413982]
- tolerability compared to Oligo ID 105204 (BALB/c mice [1]): improved tolerability
- alanine transaminase levels (BALB/c mice [2]; 25 mg/kg twice a week, Week 2): 59 IU/L
- alanine transaminase levels (BALB/c mice [2]; 25 mg/kg twice a week, Week 4): 140 IU/L
- aspartate transaminase levels (BALB/c mice [2]; 25 mg/kg twice a week, Week 2): 74 IU/L
- aspartate transaminase levels (BALB/c mice [2]; 25 mg/kg twice a week, Week 4): 161 IU/L
- alanine transaminase levels (BALB/c mice [2]; 50 mg/kg twice a week, Week 2): 77 IU/L
- alanine transaminase levels (BALB/c mice [2]; 50 mg/kg twice a week, Week 4): 462 IU/L
- aspartate transaminase levels (BALB/c mice [2]; 50 mg/kg twice a week, Week 2): 92 IU/L
- aspartate transaminase levels (BALB/c mice [2]; 50 mg/kg twice a week, Week 4): 460 IU/L
- increase in ALT/AST (BALB/c mice [2]): < 16 fold
- % inhibition (human TGF-beta1 mRNA [3]): 88%
- inhibition of a TGF-beta1 mRNA (human TGF-beta1 mRNA [3]): 60% and 65% and 70% and 75% and 80% and 85%
- percent inhibition of TGF-beta1 mRNA relative to untreated control cells (human TGF-beta1 mRNA [4]; 0.15625 nM oligonucleotide): 26%
- percent inhibition of TGF-beta1 mRNA relative to untreated control cells (human TGF-beta1 mRNA [4]; 0.3125 nM oligonucleotide): 32%
- percent inhibition of TGF-beta1 mRNA relative to untreated control cells (human TGF-beta1 mRNA [4]; 0.625 nM oligonucleotide): 57%
- percent inhibition of TGF-beta1 mRNA relative to untreated control cells (human TGF-beta1 mRNA [4]; 1.25 nM oligonucleotide): 79%
- percent inhibition of TGF-beta1 mRNA relative to untreated control cells (human TGF-beta1 mRNA [4]; 2.5 nM oligonucleotide): 85%
- percent inhibition of TGF-beta1 mRNA relative to untreated control cells (human TGF-beta1 mRNA [4]; 5.00 nM oligonucleotide): 89%
- percent inhibition of TGF-beta1 mRNA relative to untreated control cells (human TGF-beta1 mRNA [4]; 10.00 nM oligonucleotide): 93%
- percent inhibition of TGF-beta1 mRNA relative to untreated control cells (human TGF-beta1 mRNA [4]; 20 nM oligonucleotide): 96%
- percent inhibition of TGF-beta1 (human TGF-beta1 mRNA [5]; 0.3292 nM): 76%
- percent inhibition of TGF-beta1 (human TGF-beta1 mRNA [5]; 0.9877 nM): 87%
- percent inhibition of TGF-beta1 (human TGF-beta1 mRNA [5]; 2.963 nM): 91%
- percent inhibition of TGF-beta1 (human TGF-beta1 mRNA [5]; 8.8889 nM): 95%
- percent inhibition of TGF-beta1 (human TGF-beta1 mRNA [5]; 26.6667 nM): 95%
- percent inhibition of TGF-beta1 (human TGF-beta1 mRNA [5]; 80.0 nM): 93%
- percent inhibition of TGF-beta1 (human TGF-beta1 mRNA [6]; 0.9375 nM): 56%
- percent inhibition of TGF-beta1 (human TGF-beta1 mRNA [6]; 1.875 nM): 77%
- percent inhibition of TGF-beta1 (human TGF-beta1 mRNA [6]; 3.75 nM): 88%
- percent inhibition of TGF-beta1 (human TGF-beta1 mRNA [6]; 7.5 nM): 95%
- percent inhibition of TGF-beta1 (human TGF-beta1 mRNA [6]; 15 nM): 96%
- percent inhibition of TGF-beta1 (human TGF-beta1 mRNA [6]; 30 nM): 97%
- percent inhibition of TGF-beta1 (human TGF-beta1 mRNA [7]; 0.007 nM): 0%
- percent inhibition of TGF-beta1 (human TGF-beta1 mRNA [7]; 0.021 nM): 14%
- percent inhibition of TGF-beta1 (human TGF-beta1 mRNA [7]; 0.062 nM): 31%
- percent inhibition of TGF-beta1 (human TGF-beta1 mRNA [7]; 0.185 nM): 56%
- percent inhibition of TGF-beta1 (human TGF-beta1 mRNA [7]; 0.556 nM): 71%
- percent inhibition of TGF-beta1 (human TGF-beta1 mRNA [7]; 1.667 nM): 79%
- percent inhibition of TGF-beta1 (human TGF-beta1 mRNA [7]; 5 nM): 89%
- percent inhibition of TGF-beta1 (human TGF-beta1 mRNA [7]; 15 nM): 92%
- IC50 (human TGF-beta1 mRNA [7]): 0.24 nM

Substance: 414035 (antisense GTCCTTAAATACAGCCCCCA; sugars from the 5' end e2 d13 e5, backbone and methylation of C not given here) [compound 414035]
- tolerability compared to Oligo ID 105204 (BALB/c mice [1]): improved tolerability
- alanine transaminase levels (BALB/c mice [2]; 25 mg/kg twice a week, Week 2): 56 IU/L
- alanine transaminase levels (BALB/c mice [2]; 25 mg/kg twice a week, Week 4): 45 IU/L
- aspartate transaminase levels (BALB/c mice [2]; 25 mg/kg twice a week, Week 2): 82 IU/L
- aspartate transaminase levels (BALB/c mice [2]; 25 mg/kg twice a week, Week 4): 116 IU/L
- alanine transaminase levels (BALB/c mice [2]; 50 mg/kg twice a week, Week 2): 66 IU/L
- alanine transaminase levels (BALB/c mice [2]; 50 mg/kg twice a week, Week 4): 67 IU/L
- aspartate transaminase levels (BALB/c mice [2]; 50 mg/kg twice a week, Week 2): 123 IU/L
- aspartate transaminase levels (BALB/c mice [2]; 50 mg/kg twice a week, Week 4): 155 IU/L
- increase in ALT/AST (BALB/c mice [2]): < 3 fold
- % inhibition (human TGF-beta1 mRNA [3]): 89%
- inhibition of a TGF-beta1 mRNA (human TGF-beta1 mRNA [3]): 60% and 65% and 70% and 75% and 80% and 85%
- percent inhibition of TGF-beta1 mRNA relative to untreated control cells (human TGF-beta1 mRNA [4]; 0.15625 nM oligonucleotide): 17%
- percent inhibition of TGF-beta1 mRNA relative to untreated control cells (human TGF-beta1 mRNA [4]; 0.3125 nM oligonucleotide): 49%
- percent inhibition of TGF-beta1 mRNA relative to untreated control cells (human TGF-beta1 mRNA [4]; 0.625 nM oligonucleotide): 63%
- percent inhibition of TGF-beta1 mRNA relative to untreated control cells (human TGF-beta1 mRNA [4]; 1.25 nM oligonucleotide): 77%
- percent inhibition of TGF-beta1 mRNA relative to untreated control cells (human TGF-beta1 mRNA [4]; 2.5 nM oligonucleotide): 89%
- percent inhibition of TGF-beta1 mRNA relative to untreated control cells (human TGF-beta1 mRNA [4]; 5.00 nM oligonucleotide): 94%
- percent inhibition of TGF-beta1 mRNA relative to untreated control cells (human TGF-beta1 mRNA [4]; 10.00 nM oligonucleotide): 94%
- percent inhibition of TGF-beta1 mRNA relative to untreated control cells (human TGF-beta1 mRNA [4]; 20 nM oligonucleotide): 94%
- percent inhibition of TGF-beta1 (human TGF-beta1 mRNA [5]; 0.3292 nM): 74%
- percent inhibition of TGF-beta1 (human TGF-beta1 mRNA [5]; 0.9877 nM): 84%
- percent inhibition of TGF-beta1 (human TGF-beta1 mRNA [5]; 2.963 nM): 92%
- percent inhibition of TGF-beta1 (human TGF-beta1 mRNA [5]; 8.8889 nM): 94%
- percent inhibition of TGF-beta1 (human TGF-beta1 mRNA [5]; 26.6667 nM): 93%
- percent inhibition of TGF-beta1 (human TGF-beta1 mRNA [5]; 80.0 nM): 93%
- percent inhibition of TGF-beta1 (human TGF-beta1 mRNA [6]; 0.9375 nM): 64%
- percent inhibition of TGF-beta1 (human TGF-beta1 mRNA [6]; 1.875 nM): 75%
- percent inhibition of TGF-beta1 (human TGF-beta1 mRNA [6]; 3.75 nM): 88%
- percent inhibition of TGF-beta1 (human TGF-beta1 mRNA [6]; 7.5 nM): 94%
- percent inhibition of TGF-beta1 (human TGF-beta1 mRNA [6]; 15 nM): 95%
- percent inhibition of TGF-beta1 (human TGF-beta1 mRNA [6]; 30 nM): 94%
- percent inhibition of TGF-beta1 (human TGF-beta1 mRNA [7]; 0.007 nM): 9%
- percent inhibition of TGF-beta1 (human TGF-beta1 mRNA [7]; 0.021 nM): 26%
- percent inhibition of TGF-beta1 (human TGF-beta1 mRNA [7]; 0.062 nM): 45%
- percent inhibition of TGF-beta1 (human TGF-beta1 mRNA [7]; 0.185 nM): 59%
- percent inhibition of TGF-beta1 (human TGF-beta1 mRNA [7]; 0.556 nM): 76%
- percent inhibition of TGF-beta1 (human TGF-beta1 mRNA [7]; 1.667 nM): 84%
- percent inhibition of TGF-beta1 (human TGF-beta1 mRNA [7]; 5 nM): 90%
- percent inhibition of TGF-beta1 (human TGF-beta1 mRNA [7]; 15 nM): 91%
- IC50 (human TGF-beta1 mRNA [7]): 0.13 nM
